Assay results reported in the NIST ThermoML archive (doi:10.1021/acs.jced.8b00387).

Experiment: xn = mol fraction of the nth substance listed
Conditions: for viscosity / mass density / speed of sound: 102 kPa, Liquid; for viscosity: Concentric cylinders viscometry; for mass density: Vibrating tube method; for speed of sound: Frequency=3 MHz, Single path-length method; for surface tension liquid-gas: 295 K, Pendant drop shape

CC(CC(C)(C)C)CC(C)(C)CC(C)(C)C (stereo not given) [2,2,4,4,6,8,8-heptamethylnonane] + CCCCCCc1ccccc1
Conditions | mass density [kg/m3] | speed of sound [m/s] | viscosity [mPa·s]
253.15 K, x2 = 0.1015 | 816.6 | – | 11.82
253.15 K, x2 = 0.2005 | 822.2 | – | 10.18
253.15 K, x2 = 0.2999 | 828 | – | 9.04
253.15 K, x2 = 0.4001 | 834.5 | – | 7.96
253.15 K, x2 = 0.4996 | 841.5 | – | 7.08
253.15 K, x2 = 0.6 | 849.4 | – | 6.37
253.15 K, x2 = 0.6999 | 857.7 | – | 5.78
253.15 K, x2 = 0.8 | 867.1 | – | 5.3
253.15 K, x2 = 0.9 | 877.1 | – | 4.94
288.15 K, x2 = 0.1015 | 792.77 | 1311.3 | –
288.15 K, x2 = 0.2005 | 798.05 | 1317.6 | –
288.15 K, x2 = 0.2999 | 803.73 | 1324.6 | –
288.15 K, x2 = 0.4001 | 810.02 | 1332 | –
288.15 K, x2 = 0.4996 | 816.74 | 1340.4 | –
288.15 K, x2 = 0.6 | 824.16 | 1349.4 | –
288.15 K, x2 = 0.6999 | 832.36 | 1359.3 | –
288.15 K, x2 = 0.8 | 841.37 | 1370 | –
288.15 K, x2 = 0.9 | 851.27 | 1382.2 | –
293.15 K, x2 = 0.1015 | 789.39 | 1292.1 | 3.37
293.15 K, x2 = 0.2005 | 794.63 | 1298.5 | 3.04
293.15 K, x2 = 0.2999 | 800.29 | 1305.4 | 2.75
293.15 K, x2 = 0.4001 | 806.56 | 1313 | 2.51
293.15 K, x2 = 0.4996 | 813.23 | 1321.1 | 2.3
293.15 K, x2 = 0.6 | 820.65 | 1330.2 | 2.12
293.15 K, x2 = 0.6999 | 828.75 | 1340.1 | 1.98
293.15 K, x2 = 0.8 | 837.7 | 1350.9 | 1.85
293.15 K, x2 = 0.9 | 847.55 | 1363 | 1.74
303.15 K, x2 = 0.1015 | 782.63 | 1254.4 | 2.68
303.15 K, x2 = 0.2005 | 787.8 | 1261.2 | 2.44
303.15 K, x2 = 0.2999 | 793.41 | 1267.7 | 2.23
303.15 K, x2 = 0.4001 | 799.59 | 1275.6 | 2.05
303.15 K, x2 = 0.4996 | 806.19 | 1283.4 | 1.89
303.15 K, x2 = 0.6 | 813.53 | 1292.4 | 1.78
303.15 K, x2 = 0.6999 | 821.53 | 1302.3 | 1.66
303.15 K, x2 = 0.8 | 830.36 | 1313.5 | 1.56
303.15 K, x2 = 0.9 | 840.1 | 1325.2 | 1.48
313.15 K, x2 = 0.1015 | 775.87 | 1217.8 | 2.19
313.15 K, x2 = 0.2005 | 780.97 | 1224.6 | 2
313.15 K, x2 = 0.2999 | 786.51 | 1231 | 1.84
313.15 K, x2 = 0.4001 | 792.62 | 1238.9 | 1.7
313.15 K, x2 = 0.4996 | 799.14 | 1246.6 | 1.58
313.15 K, x2 = 0.6 | 806.39 | 1255.5 | 1.49
313.15 K, x2 = 0.6999 | 814.29 | 1265.4 | 1.4
313.15 K, x2 = 0.8 | 823.01 | 1276.7 | 1.32
313.15 K, x2 = 0.9 | 832.64 | 1288.3 | 1.25
323.15 K, x2 = 0.1015 | 769.09 | 1181.9 | 1.82
323.15 K, x2 = 0.2005 | 774.12 | 1188.7 | 1.67
323.15 K, x2 = 0.2999 | 779.61 | 1195.1 | 1.55
323.15 K, x2 = 0.4001 | 785.63 | 1203 | 1.44
323.15 K, x2 = 0.4996 | 792.08 | 1210.5 | 1.37
323.15 K, x2 = 0.6 | 799.24 | 1219.5 | 1.28
323.15 K, x2 = 0.6999 | 807.04 | 1229.4 | 1.2
323.15 K, x2 = 0.8 | 815.65 | 1240.5 | 1.14
323.15 K, x2 = 0.9 | 825.16 | 1252 | 1.09
333.15 K, x2 = 0.1015 | 762.29 | 1147.1 | 1.53
333.15 K, x2 = 0.2005 | 767.25 | 1153.6 | 1.42
333.15 K, x2 = 0.2999 | 772.68 | 1160.3 | 1.32
333.15 K, x2 = 0.4001 | 778.62 | 1167.9 | 1.23
333.15 K, x2 = 0.4996 | 784.99 | 1175.5 | 1.18
333.15 K, x2 = 0.6 | 792.06 | 1184.4 | 1.11
333.15 K, x2 = 0.6999 | 799.77 | 1194.3 | 1.04
333.15 K, x2 = 0.8 | 808.26 | 1205.1 | 0.99
333.15 K, x2 = 0.9 | 817.65 | 1216.8 | 0.945

Conditions | surface tension liquid-gas [mN/m]
x2 = 0.1015 | 24.4
x2 = 0.2005 | 24.5
x2 = 0.2999 | 24.7
x2 = 0.4001 | 25.3
x2 = 0.4996 | 25.6
x2 = 0.6 | 25.8
x2 = 0.6999 | 26.5
x2 = 0.8 | 27.2
x2 = 0.9 | 27.9

CC(CC(C)(C)C)CC(C)(C)CC(C)(C)C (stereo not given) [2,2,4,4,6,8,8-heptamethylnonane] + CCCCc1ccccc1
Conditions | mass density [kg/m3] | speed of sound [m/s] | viscosity [mPa·s]
253.15 K, x2 = 0.1007 | 815.9 | – | 11.06
253.15 K, x2 = 0.2007 | 820.7 | – | 8.94
253.15 K, x2 = 0.3 | 826.1 | – | 7.29
253.15 K, x2 = 0.3999 | 832.1 | – | 5.97
253.15 K, x2 = 0.4998 | 838.8 | – | 4.93
253.15 K, x2 = 0.5997 | 846.5 | – | 4.12
253.15 K, x2 = 0.7001 | 855.7 | – | 3.46
253.15 K, x2 = 0.7998 | 865.8 | – | 2.96
253.15 K, x2 = 0.8992 | 878.5 | – | 2.59
288.15 K, x2 = 0.1007 | 791.93 | 1308.2 | –
288.15 K, x2 = 0.2007 | 796.54 | 1311.6 | –
288.15 K, x2 = 0.3 | 801.59 | 1315.6 | –
288.15 K, x2 = 0.3999 | 807.31 | 1320.4 | –
288.15 K, x2 = 0.4998 | 813.73 | 1325.5 | –
288.15 K, x2 = 0.5997 | 820.89 | 1331.9 | –
288.15 K, x2 = 0.7001 | 829.45 | 1339.5 | –
288.15 K, x2 = 0.7998 | 839.17 | 1348.9 | –
288.15 K, x2 = 0.8992 | 850.51 | 1359.8 | –
293.15 K, x2 = 0.1007 | 788.54 | 1289.3 | 3.22
293.15 K, x2 = 0.2007 | 793.11 | 1292.7 | 2.77
293.15 K, x2 = 0.3 | 798.11 | 1296.6 | 2.41
293.15 K, x2 = 0.3999 | 803.78 | 1301.1 | 2.09
293.15 K, x2 = 0.4998 | 810.17 | 1306.3 | 1.83
293.15 K, x2 = 0.5997 | 817.24 | 1312.5 | 1.6
293.15 K, x2 = 0.7001 | 825.74 | 1320.1 | 1.41
293.15 K, x2 = 0.7998 | 835.37 | 1329.1 | 1.29
293.15 K, x2 = 0.8992 | 846.62 | 1340 | 1.15
303.15 K, x2 = 0.1007 | 781.75 | 1251.9 | 2.58
303.15 K, x2 = 0.2007 | 786.24 | 1255.2 | 2.25
303.15 K, x2 = 0.3 | 791.16 | 1258.9 | 1.97
303.15 K, x2 = 0.3999 | 796.72 | 1263.3 | 1.73
303.15 K, x2 = 0.4998 | 803 | 1268.3 | 1.55
303.15 K, x2 = 0.5997 | 809.95 | 1274.4 | 1.37
303.15 K, x2 = 0.7001 | 818.29 | 1281.9 | 1.21
303.15 K, x2 = 0.7998 | 827.77 | 1290.3 | 1.1
303.15 K, x2 = 0.8992 | 838.82 | 1300.9 | 0.993
313.15 K, x2 = 0.1007 | 774.96 | 1215.2 | 2.11
313.15 K, x2 = 0.2007 | 779.36 | 1218.4 | 1.86
313.15 K, x2 = 0.3 | 784.19 | 1222 | 1.64
313.15 K, x2 = 0.3999 | 789.65 | 1226.2 | 1.46
313.15 K, x2 = 0.4998 | 795.81 | 1231.1 | 1.3
313.15 K, x2 = 0.5997 | 802.64 | 1237 | 1.16
313.15 K, x2 = 0.7001 | 810.83 | 1244.2 | 1.03
313.15 K, x2 = 0.7998 | 820.15 | 1252.3 | 0.957
313.15 K, x2 = 0.8992 | 831.01 | 1262.7 | 0.855
323.15 K, x2 = 0.1007 | 768.15 | 1179.3 | 1.76
323.15 K, x2 = 0.2007 | 772.47 | 1182.3 | 1.56
323.15 K, x2 = 0.3 | 777.21 | 1185.8 | 1.39
323.15 K, x2 = 0.3999 | 782.56 | 1189.8 | 1.27
323.15 K, x2 = 0.4998 | 788.61 | 1194.5 | 1.14
323.15 K, x2 = 0.5997 | 795.31 | 1200.2 | 1.03
323.15 K, x2 = 0.7001 | 803.34 | 1207.2 | 0.92
323.15 K, x2 = 0.7998 | 812.49 | 1215.1 | 0.831
323.15 K, x2 = 0.8992 | 823.15 | 1225.2 | 0.754
333.15 K, x2 = 0.1007 | 761.33 | 1144.1 | 1.49
333.15 K, x2 = 0.2007 | 765.57 | 1147 | 1.33
333.15 K, x2 = 0.3 | 770.2 | 1150.3 | 1.2
333.15 K, x2 = 0.3999 | 775.45 | 1154.1 | 1.1
333.15 K, x2 = 0.4998 | 781.38 | 1158.8 | 1
333.15 K, x2 = 0.5997 | 787.95 | 1164.2 | 0.9
333.15 K, x2 = 0.7001 | 795.82 | 1170.9 | 0.812
333.15 K, x2 = 0.7998 | 804.8 | 1178.9 | 0.736
333.15 K, x2 = 0.8992 | 815.26 | 1188.7 | 0.67

Conditions | surface tension liquid-gas [mN/m]
x2 = 0.1007 | 24.3
x2 = 0.2007 | 24.6
x2 = 0.3 | 24.8
x2 = 0.3999 | 25.1
x2 = 0.4998 | 25.5
x2 = 0.5997 | 26
x2 = 0.7001 | 26.2
x2 = 0.7998 | 26.7
x2 = 0.8992 | 27.3
